Results on one compound are retold here after patent US20200270216A1, “COMPOSITIONS AND METHODS FOR INHIBITING N-SMASE2” (The Regents of the University of California, priority 2017, published 2020).

For the assay, the system named is HEK293T Tau RD P301S FRET biosensor cells. In words: D+R functional assay: tau seed transfer from P2-seeded donor cells to DiD-labeled recipient cells. It is filed as cell-based. As for the experimental part:
The compounds disclosed herein were further evaluated in the functional assays (“D+R approach”). The assays were based on the use of two cell populations—donor cells (D) and recipient cells (R). Recipients express a specific signal upon accumulation of protein aggregates (for example, FRET signal). The D+R approach can be divided into four steps (FIG. 4A).
In step 1, donor and recipient cells were plated in separation and protein aggregation is induced in the donor cells by using tissue-derived or synthetic proteopathic seeds (“seeding”) or by chemical and/or genetic methods. In step 2, either donor cells or recipient cells were labeled with a lipophilic dye (or by other cell labeling technology) in order to be able to distinguish between donor and recipients cells after trypsinization and re-plating of the donor and recipient cells together in step 3 (R+D). Alternatively, donor and recipient cells were physically divided by a permeable support (for example, Transwell). In any scenario, the cells were connected through the media and they grow for 24-60 hours with or without addition of pre-selected compounds. Efficiency of proteopathic seed transmission from donor cells to recipient cells can be analyzed using microscopy, flow cytometry, or imaging flow cytometry. […] Treatment of the tau biosensor cells with tau seeds lead to RD aggregation, as a result, CFP and YFP molecules come into close proximity and a FRET signal can be generated in the CFP/YFP pair upon illumination. The far-red fluorescent, lipophilic carbocyanine dye, DiD, was used for labeling recipient cells. This dye allowed for distinguishing between the DiD-negative donor and the DiD positive recipient cells without interference with the CFP/YFP FRET signal. The representative images of DiD-negative FRETpositive donor cell seeded with P2-derived tau seeds), DiD-positive FRET-negative recipient cell (DiD-R), and DiD positive FRET-positive recipient cell, which were growing in the presence of P2-D (DiD-R/R+D) are presented at the FIG. 4B. […]

What is called EC50 is the concentration that produces a half-maximal response. As for `O=c1[nH]c(=S)[nH]c(-c2ccccc2)c1Cc1c(O)ccc2ccccc12` [cambinol], the “tau seed transmission from donor cells to recipient cells” value (D+R model, flow cytometry (FIG. 4C)) was “restrained tau seed transmission from the donor cells to the recipient cells in a dose-dependent manner”. Moreover, the concentration giving a half-maximal response (EC50) (Homo sapiens, HEK-293T, 48 h, 48-hour treatment, P2-seeded donor cells, FRET-positive aggregates in recipient cells, read-out: EC50, reduction of tau transfer from donor to recipient cells (D+R assay)) is ~14 µM.
